{
  "source": "patent US20150045387A1",
  "about": "“Bi-Aromatic And Tri-Aromatic Compounds As NADPH Oxidase 2 (Nox2) Inhibitors” (The University of Surrey, priority 2011, published 2015)",
  "key": {"[1]": {"test_system": "bone marrow hematopoietic stem cells", "assay": "in vivo test of LMH001 on bone marrow hematopoietic stem cell proliferation (MTS assay)", "conditions": "2.2 mg/kg/day intra-peritoneal for two weeks, compared to vehicle injected controls, n=8 mice/per group", "procedure": "FIG. 3 is a graph showing the effect of LMH001 (2 week, IP injection) on bone marrow hematopoietic stem cell proliferation in mice. Wild-type mice (C57BL6/J) at 5 months of age were injected intra-peritoneal with LMH001 at 2.2 mg/kg/day for two weeks. Bone marrow hematopoietic stem cells were isolated and test for cell proliferation by a MTS assay kit (Promega).\nOn the day of experiment, primary hematopoietic bone marrow cells were obtained from wild-type male C57BL/6 mice as described previously (11). Briefly, 12-16 week old mice were sacrificed by cervical dislocation and their hind legs dissected and carefully cleaned from adherent tissues. Next, the ends of each bone were removed to expose the marrow and this was collected by flushing the femurs and tibias using a 25 gauge needle loaded with Dulbecco's PBS. […]\nThe ex vivo proliferative capabilities of isolated BMSC or cultured cells were analyzed using the MTS proliferation assay. […] After 24 hours in culture medium containing LMH001 (0-10 μM), proliferation was assessed using the MTS (CellTiter 96 AQ; Promega, Madison, USA) assay according to the manufacturer's protocol. The absorbance at 490 nm was read using an ELISA plate reader (Perkin elmer), and the proliferation index calculated relative to the controls. The mean of 3 blank readings was subtracted from each corrected value. […]"}, "HL-60 cells": {"test_system": "HL-60 cells", "assay": "normal cell proliferation, MTS assay, HL-60", "assay_type": "cell-based, human", "conditions": "HL-60, LMH001 up to 10 μM, 6, 12 and 24 h of culture", "procedure": "A) SVEC4-10 cells and HepG2 cells were cultured in the presence or absence of LHM001 (0-10 μM) for 24 h and tested for cell proliferation using a MTS assay kit. B) HL-60 cells were cultured in the presence or absence of LMH001 (0-10 μM), and cell proliferation was examined at 6, 12 and 24 h of culture.\nHL-60 is a human promyelocytic leukaemia cell line. The HL60 cells were grown in RPMI 1640 medium; containing 10% (v/v) heat inactivated foetal calf serum, 100 U/mL penicillin and […] streptomycin, in a humidified atmosphere at 37° C. with 5% CO2. HL60 cells were differentiated to the human neutrophils by culturing the cells in the culture medium in the presence of 1.25% v/v DMSO for 6 days before being used for the experiments.\nThe ex vivo proliferative capabilities of isolated BMSC or cultured cells were analyzed using the MTS proliferation assay. […] After 24 hours in culture medium containing LMH001 (0-10 μM), proliferation was assessed using the MTS (CellTiter 96 AQ; Promega, Madison, USA) assay according to the manufacturer's protocol. The absorbance at 490 nm was read using an ELISA plate reader (Perkin elmer), and the proliferation index calculated relative to the controls. The mean of 3 blank readings was subtracted from each corrected value."}, "[2]": {"test_system": "mouse microvascular endothelial cells (SVEC4-10)", "assay": "cell viability by trypan blue exclusion and viable cell number counting, SVEC4-10", "assay_type": "cell-based", "conditions": "SVEC4-10, LMH001 5 and 10 μM, 24 h, trypan blue exclusion", "procedure": "FIG. 7 is a graph showing no cytotoxicity of LMH001 on living mouse microvascular endothelial cells (SVEC4-10) and human liver hepatocyte cells (HepG2), assessed by trypan blue exclusion and viable cell number counting. Cells were cultured with LMH001 (5 and 10 μM) for 24 h. Cell viabilities of SVEC4-10 cells and HepG2 cells in the presence of LMH001 (5 and 10 μM) were expressed as % of alive cells compared to cells in the absence of LMH001 (control, 100%). Results are presented as mean±SD (n=3).\nThe mouse lymph node microvascular endothelial cell line (SVEC4-10) was from the American Type Culture Collection (CRL-2167) and grown in DMEM, containing 10% (v/v) heat inactivated foetal calf serum, 100 U/mL penicillin and […] streptomycin, in a humidified atmosphere at 37° C. with 5% CO2.\nCell viability and membrane integrity in the presence and absence of LMH001 were assessed using the trypan blue exclusion assay as described previously (15). Briefly, cells (1×10^6) were seeded onto 10 cm^2 culture dishes and allowed to adhere for 4 hours in 10% (v/v) FCS medium. […] At the time of experiment, cells were harvested by 0.25% Trypsin/EDTA, pelleted, resuspended in serum free medium and counted using a haemocytometer in the presence of trypan blue (0.4%) solution. The number of viable cells was calculated as a percentage of total cells."}},
  "data": [
    {"smiles": "O=C(OCc1cccc(O)c1O)c1ccc(O)c(CO)c1", "note": "[LMH001, (2,3,-dihydroxyphenyl)methyl 4-hydroxy-3-(hydroxymethyl)benzoate]", "values": [
      {"measurement": "toxic effect on bone marrow hematopoietic stem cell proliferation", "setting": "[1]", "value": "no toxic effect"},
      {"measurement": "normal cell proliferation under physiological condition", "setting": "HL-60 cells", "value": "no significant effect"},
      {"measurement": "cell viability (% of alive cells vs control)", "setting": "[2]", "value": "no significant difference"}
    ]}
  ]
}
